Results from patent publication US20230000842A1, “METHODS OF TREATING CARTILAGE DISORDERS THROUGH INHIBITION OF CLK AND DYRK” (SAMUMED, LLC, priority 2019, published 2023).

Tests used:
[1] = target: CLK2 kinase (Homo sapiens, UniProt P49760); assay: CLK2 kinase activity assay (Z-lyte FRET); assay type: biochemical; settings: Z-lyte Ser/Thr 6 peptide, 60 μM ATP, 1 h at room temperature;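 further: FRET read-out as coumarin to fluorescein emission ratio, unphosphorylated peptide as 0% and phosphorylated peptide as 100% controls, duplicate reactions, non-linear regression fit of dose-response curves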
[2] = target: CLK3 kinase (Homo sapiens, UniProt P49761); assay: CLK3 kinase activity assay (Z-lyte FRET); assay type: biochemical; settings: Z-lyte Ser/Thr 18 peptide, 156 μM ATP, 1 h at room temperature;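 further: kinase activity read as coumarin/fluorescein emission ratio by FRET, unphosphorylated peptide as 0% and phosphorylated peptide as 100% control, values from non-linear regression of dose-response curves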
[3] = test system: primary human mesenchymal stem cells (hMSCs); assay: Chondrogenesis screening using primary human mesenchymal stem cells; assay type: cell-based; settings: Homo sapiens, Mesenchymal stem cells, hMSC chondrogenesis; for EC50: concentration required to induce 50% levels of chondrogenesis with TGF-β3 as positive control, read-out: Conc (nM) of 50% TGF-β3 activity; for Emax: maximum activity relative to TGF-β3 (10 ng/mL) positive control, read-out: Max. Activity as % TGF-β3 activity
Method in brief: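 Derived values are EC50 for 50% chondrogenesis, maximal activity and the dose giving it. These come from nodule area in passage 3–6 primary hMSCs, expressed as fold change over the mean of 3 same-plate DMSO wells, 2–3 replicates per concentration. TGF-β3 served as positive control.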

[4] = test system: Wnt pathway activity (SW480 colon carcinoma cells stably expressing the Sp5-Luc reporter); assay: Wnt pathway activity screening assay (Sp5-Luc reporter gene assay); settings: Homo sapiens, SW480, Table 4; SW480 cells stably expressing Sp5-Luc reporter, 10-point dose-response from 10 μM, 36 to 48 hours

CLK2 kinase, sequence (P49760 whole entry): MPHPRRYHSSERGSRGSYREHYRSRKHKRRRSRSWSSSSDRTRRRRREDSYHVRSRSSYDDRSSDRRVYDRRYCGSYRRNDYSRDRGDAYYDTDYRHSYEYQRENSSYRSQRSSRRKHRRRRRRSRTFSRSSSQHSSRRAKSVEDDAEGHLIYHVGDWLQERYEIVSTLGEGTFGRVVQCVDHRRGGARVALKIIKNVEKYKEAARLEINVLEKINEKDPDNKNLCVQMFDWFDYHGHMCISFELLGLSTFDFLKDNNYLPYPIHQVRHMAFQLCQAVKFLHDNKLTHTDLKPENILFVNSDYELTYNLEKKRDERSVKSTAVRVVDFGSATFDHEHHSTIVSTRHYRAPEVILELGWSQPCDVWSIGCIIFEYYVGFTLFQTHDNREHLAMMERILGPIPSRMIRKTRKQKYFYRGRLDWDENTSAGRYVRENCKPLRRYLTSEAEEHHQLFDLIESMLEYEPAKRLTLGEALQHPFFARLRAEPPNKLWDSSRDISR
CLK3 kinase, sequence (P49761 whole entry): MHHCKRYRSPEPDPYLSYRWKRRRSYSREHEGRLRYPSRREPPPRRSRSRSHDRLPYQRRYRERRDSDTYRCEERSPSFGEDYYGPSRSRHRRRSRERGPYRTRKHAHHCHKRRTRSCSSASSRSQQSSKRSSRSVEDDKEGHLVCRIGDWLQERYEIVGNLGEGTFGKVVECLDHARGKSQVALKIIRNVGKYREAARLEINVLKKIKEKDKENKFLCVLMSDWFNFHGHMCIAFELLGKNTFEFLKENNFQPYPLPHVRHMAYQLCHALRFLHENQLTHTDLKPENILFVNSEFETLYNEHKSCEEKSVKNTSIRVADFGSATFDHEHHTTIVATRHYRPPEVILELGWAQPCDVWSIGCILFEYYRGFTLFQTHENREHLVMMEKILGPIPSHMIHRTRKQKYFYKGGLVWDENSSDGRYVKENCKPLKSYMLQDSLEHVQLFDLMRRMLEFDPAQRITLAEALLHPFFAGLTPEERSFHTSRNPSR

SMILES | EC50 [1] [nM] | EC50 [2] [nM] | EC50 [3] [nM] | EC50 [4] [nM] | Emax [3] [%]
CS(=O)(=O)NCc1cc(F)cc(-c2nccc3[nH]c(-c4n[nH]c5ccc(-c6cncnc6)cc45)nc23)c1 [compound 293] | 16 | 186 | 30 | 40.5 | 73.1
Fc1cccc(-c2cncc3[nH]c(-c4n[nH]c5ncc(-c6cccnc6)cc45)cc23)c1 [compound 300] | 8 | 122 | – | 572 | 35.6
Fc1cccc(-c2nccc3[nH]c(-c4n[nH]c5ccc(-c6cccnc6)nc45)cc23)c1 [compound 301] | 8 | 105 | – | 1350 | 44.8
CCC(=O)Nc1cncc(-c2ccc3[nH]nc(-c4cc5c(-c6cccc(F)c6)cncc5[nH]4)c3c2)c1 [compound 303] | 15 | 85 | – | 45 | 33.5
CCC(=O)Nc1cncc(-c2ccc3[nH]nc(-c4cc5c(-c6cccc(F)c6)ccnc5[nH]4)c3c2)c1 [compound 304] | 16 | 21 | – | 13.2 | 167
CCC(=O)Nc1cncc(-c2cc3c(-c4cc5c(-c6cccc(F)c6)nccc5[nH]4)n[nH]c3cn2)c1 [compound 306] | 8 | 138 | 30 | 305 | 50.8
CC(C)C(=O)Nc1cncc(-c2cc3c(-c4cc5c(-c6cccc(F)c6)cncc5[nH]4)n[nH]c3cn2)c1 [compound 307] | 13 | 307 | – | 1730 | 42.2
CN(C)Cc1cncc(-c2ccc3[nH]nc(-c4cc5c(-c6cccc(F)c6)nccc5[nH]4)c3c2)c1 [compound 308] | 7 | 83 | – | 2940 | 42
Fc1cccc(-c2cncc3[nH]c(-c4n[nH]c5ncc(-c6cncc(CN7CCCCC7)c6)cc45)cc23)c1 [compound 313] | 18 | 295 | – | 3120 | 108
O=C(Nc1cncc(-c2cc3c(-c4cc5c(-c6ccc(F)cc6)nccc5[nH]4)n[nH]c3cn2)c1)C1CC1 [compound 314] | 10 | 202 | 30 | 844 | 96.2
Fc1ccc(-c2nccc3[nH]c(-c4n[nH]c5cnc(-c6cncc(CN7CCC(F)(F)C7)c6)cc45)cc23)cc1 [compound 316] | 7 | 417 | 10 | 291 | 61.2
Fc1ccc(-c2cncc3[nH]c(-c4n[nH]c5cnc(-c6cncc(CN7CCC(F)(F)C7)c6)cc45)cc23)cc1 [compound 317] | 16 | 9840 | 100 | 3260 | 78.4
Nc1cncc(-c2ccc3[nH]nc(-c4cc5c(-c6ccccc6F)ccnc5[nH]4)c3c2)c1 [compound 320] | 9 | 33 | – | 131 | 23.5
Nc1cncc(-c2cnc3[nH]nc(-c4cc5c(-c6ccccc6F)nccc5[nH]4)c3c2)c1 [compound 321] | 7 | 67 | 30 | 197 | 86
Nc1cncc(-c2cc3c(-c4cc5c(-c6ccccc6F)cncc5[nH]4)n[nH]c3cn2)c1 [compound 324] | 6 | 205 | – | 1630 | 15.5
CC(C)CC(=O)Nc1cncc(-c2ccc3[nH]nc(-c4cc5c(-c6ccccc6F)nccc5[nH]4)c3n2)c1 [compound 326] | 10 | 144 | – | 605 | 36.3
CC(C)(C)CC(=O)Nc1cncc(-c2cc3c(-c4cc5c(-c6ccccc6F)nccc5[nH]4)n[nH]c3cn2)c1 [compound 327] | 10 | 414 | 30 | 1030 | 54.3
O=C(Nc1cncc(-c2cnc3[nH]nc(-c4cc5c(-c6ccccc6F)nccc5[nH]4)c3c2)c1)C1CC1 [compound 328] | 6 | 47 | 30 | 321 | 78.1
O=C(Nc1cncc(-c2cnc3[nH]nc(-c4cc5c(-c6ccccc6F)cncc5[nH]4)c3c2)c1)C1CC1 [compound 329] | 8 | 42 | – | 390 | 52.1
O=C(Nc1cncc(-c2ccc3[nH]nc(-c4cc5c(-c6ccccc6F)nccc5[nH]4)c3n2)c1)C1CC1 [compound 330] | 12 | 109 | – | 642 | 24.8
O=C(Nc1cncc(-c2ccc3[nH]nc(-c4cc5c(-c6ccccc6F)nccc5[nH]4)c3c2)c1)C1CCCC1 [compound 331] | 15 | 158 | – | 418 | 70.8
CC(C)Nc1cncc(-c2cnc3[nH]nc(-c4cc5c(-c6ccccc6F)nccc5[nH]4)c3c2)c1 [compound 332] | 6 | 196 | 10 | 435 | 75.8
CCNCc1cncc(-c2cc3c(-c4cc5c(-c6ccccc6F)ccnc5[nH]4)n[nH]c3cn2)c1 [compound 335] | 19 | 2310 | 30 | > 10000 | 270

Second part, led by results:

EC50 [1] [nM] | EC50 [2] [nM] | EC50 [3] [nM] | EC50 [4] [nM] | SMILES | Emax [3] [%]
1 | 25 | 30 | 21 | CN(C)Cc1cncc(-c2cnc3[nH]nc(-c4nc5c(-c6cc(F)cc(N7CCOCC7)c6)cncc5[nH]4)c3c2)c1 [compound 294] | 114
2 | 96 | 30 | 377 | COc1cccc(-c2nccc3[nH]c(-c4n[nH]c5ccc(-c6cccnc6)nc45)nc23)c1 [compound 295] | 50.6
1 | 55 | 30 | > 10000 | COc1cccc(-c2cncc3[nH]c(-c4n[nH]c5ccc(-c6cccnc6)nc45)nc23)c1 [compound 296] | 59.2
1 | 84 | 100 | 1610 | COc1cccc(-c2ccnc3[nH]c(-c4n[nH]c5ccc(-c6cccnc6)nc45)nc23)c1 [compound 297] | 50.5
6 | 46 | – | 45 | CCC(=O)Nc1cncc(-c2ccc3[nH]nc(-c4cc5c(-c6cccc(F)c6)nccc5[nH]4)c3c2)c1 [compound 302] | 16.2
3 | 33 | – | 246 | CCC(=O)Nc1cncc(-c2cnc3[nH]nc(-c4cc5c(-c6cccc(F)c6)cncc5[nH]4)c3c2)c1 [compound 305] | 113
3 | 37 | – | 1280 | CN(C)Cc1cncc(-c2ccc3[nH]nc(-c4cc5c(-c6cccc(F)c6)cncc5[nH]4)c3c2)c1 [compound 309] | 193
4 | 74 | 10 | 1180 | CN(C)Cc1cncc(-c2cnc3[nH]nc(-c4cc5c(-c6cccc(F)c6)cncc5[nH]4)c3c2)c1 [compound 310] | 110
3 | 218 | 30 | 1850 | CN(C)Cc1cncc(-c2cc3c(-c4cc5c(-c6cccc(F)c6)nccc5[nH]4)n[nH]c3cn2)c1 [compound 311] | 60
4 | 252 | – | 3750 | Fc1cccc(-c2nccc3[nH]c(-c4n[nH]c5ccc(-c6cncc(CN7CCCCC7)c6)nc45)cc23)c1 [compound 312] | 48
3 | 139 | – | 3620 | Fc1ccc(-c2nccc3[nH]c(-c4n[nH]c5ccc(-c6cncc(CN7CCCC7)c6)cc45)cc23)cc1 [compound 315] | 98.5
6 | 817 | – | 594 | Fc1ccc(-c2cncc3[nH]c(-c4n[nH]c5ncc(-c6cncnc6)cc45)cc23)cc1 [compound 319] | 23.8
6 | 66 | – | 745 | Nc1cncc(-c2cnc3[nH]nc(-c4cc5c(-c6ccccc6F)ccnc5[nH]4)c3c2)c1 [compound 322] | 27.6
2 | 59 | 10 | 224 | Nc1cncc(-c2cc3c(-c4cc5c(-c6ccccc6F)nccc5[nH]4)n[nH]c3cn2)c1 [compound 323] | 117
2 | 89 | – | 2300 | CCNCc1cncc(-c2cnc3[nH]nc(-c4cc5c(-c6ccccc6F)cncc5[nH]4)c3c2)c1 [compound 334] | 37.3
3 | 107 | – | 2490 | CN(C)Cc1cncc(-c2cnc3[nH]nc(-c4cc5c(-c6ccccc6F)cncc5[nH]4)c3c2)c1 [compound 336] | 60.9
2 | 109 | 30 | 1370 | CN(C)Cc1cncc(-c2ccc3[nH]nc(-c4cc5c(-c6ccccc6F)cncc5[nH]4)c3n2)c1 [compound 337] | 50.6
